Source: patent US4737504A, “5-fluoro-and 8-fluoro-trimetoquinol compounds and the processes for their preparation” (priority 1986, dated 1988)
Read-outs that look alike come from different tables or passages of the source.

How the values were obtained:
adrenergic receptors = conditions: background; cited from earlier work
[1] = background; cited from earlier work
[2] = molecular target: T1, β2-adrenoceptors (guinea pig trachea) (Cavia porcellus, UniProt Q8K4Z4); test: relaxation of carbachol-contracted guinea pig tracheal strips (β2-adrenergic activity); format: cell-based, guinea pig (male albino Hartley)
T1 construct: the atria and trachea were quickly removed by standard procedures; tissue Glenn Carr, Columbus, OH (animals); host or cells: guinea pig trachea, spirally cut strips
Method: (§1) The β2 /β1 -adrenergic activity was determined using the following procedure: Male albino Hartley guinea pigs were employed in all experiments. The isolation and procedures for testing of each compound (10^-9 to 3×10^-5 M) with isolated guinea pig atria and trachea were identical with those described by Sober et al., J. Med. Chem., 24: 970, 1981.
Male guinea pigs (Hartley strain, Glenn Carr, Columbus, OH) weighing between 400 and 700 grams were reserpinized (5 mg/kg, i.p.) 12-16 hours before experiments. Animals were sacrificed by a sharp blow to the head and the atria and trachea were quickly removed by standard procedures (The Staff, University of Edinburgh, "Pharmacological Experiments on Isolated Preparation", Livingston, London, pp. 104-111, 1970). Trachea were spirally cut into 2 to 4 matched strips (Constantine, J. Pharm. Pharmac., 17: 34-35, 1965). Spontaneously beating atria and tracheal strips were mounted in 10 ml tissue baths filled with Krebs-Heinsleit solution (millimolar concentrations: NaCl, 118; KCl, 4.7; CaCl2 -2H2 O, 2.5; MgCl2 -6H2 O, 5.0; NaH2 PO4 H2 O, 1.0; NaHCO3, […]; and dextrose, 11) warmed to 37° C. and bubbled with 95% O2 :5% CO2. Tensions of 1 and 3 gm were applied to the atria and trachea, respectively.
Following a minimum 1 hour equilibration period, a concentration of 3×10^-7 M carbachol was administered to the strips.
(§2) Each drug concentration was added only after the effects of the previous concentration reached a maximum and remained constant. […] Responses for agonists were expressed as pD2 values (-log EC50) values and were calculated directly from graphical plots of % maximal response versus log molar drug concentration.

[3] = molecular target: T2, β1-adrenoceptors (guinea pig atria) (Cavia porcellus, UniProt H0W3H1); test: chronotropic response of spontaneously beating guinea pig right atria (β1-adrenergic activity); format: cell-based, guinea pig (male albino Hartley); conditions: read-out: IAR ± SEM (intrinsic activity ratio)
T2 construct: the atria and trachea were quickly removed by standard procedures; tissue Glenn Carr, Columbus, OH (animals); host or cells: guinea pig right atria, spontaneously beating
Method: as §1
Male guinea pigs (Hartley strain, Glenn Carr, Columbus, OH) weighing between 400 and 700 grams were reserpinized (5 mg/kg, i.p.) 12-16 hours before experiments. Animals were sacrificed by a sharp blow to the head and the atria and trachea were quickly removed by standard procedures (The Staff, University of Edinburgh, "Pharmacological Experiments on Isolated Preparation", Livingston, London, pp. 104-111, 1970). Trachea were spirally cut into 2 to 4 matched strips (Constantine, J. Pharm. Pharmac., 17: 34-35, 1965). […]
as §2

[4] = test system: human platelets (U46619-induced aggregation); test: inhibition of U46619-induced platelet aggregation in presence of aspirin, human platelet-rich plasma; format: cell-based
Method: (§3) The antiaggregatory and antisecretory activity on human platelets was determined by evaluating the in vitro aggregation and [^14 C]serotonin secretion in human platelet preparations. Blood was taken by venipuncture from normal human volunteers who were reported to be free of medication for at least 10 days before blood drawing. Venous blood samples were mixed with acid-citrate dextrose solution (9:1) and centrifuged at 120×g for 15 minutes at room temperature to obtain platelet-rich plasma, PRP, (Huzoor-Akbar et al., Biochem. Pharmacol., 30: 2013-2020, 1981). The PRP was transferred to polypropylene tubes and stored under an atmosphere of 8% CO2. The remaining blood was centrifuged at 1000×g for 10 minutes to obtain platelet-poor plasma. […] Platelet counts varied between 280,000 to 320,000 per cmm or were adjusted to 300,000 per cmm for the aggregation and secretion experiments. All studies were conducted within 2 hours after PRP recovery.
(§4) For aggregation studies, 0.5 ml of PRP was incubated with drug or vehicle (1-5 μl) for 1 minute at 37° C. before the initiation of aggregation with inducers. […] In all experiments, the minimum concentration of inducer (adenosine diphosphate ADP; epinephrine, E; 15S-hydroxy-11α,9α-epoxymethanoprosta-5Z,13E-dienoic acid, U46619; collagen; and arachidonic acid, AA) which caused maximal irreversible aggregation within each PRP preparation was used. Aggregation was monitored for 4 to 6 minutes after the addition of an inducer and data were presented as a percentage inhibition of either slope or maximal light transmittance changes in the presence of varying drug concentrations.

[5] = test system: human platelets (U46619-induced serotonin secretion); test: inhibition of U46619-induced serotonin secretion in presence of aspirin, human platelet-rich plasma; format: cell-based
Method: as §3, §4
(§5) Secretion data were calculated as the net increase of serotonin released into the supernatant by each inducer and expressed as a percentage of the total radioactivity in platelets Mayo et al., Biochem. Pharmacol., 30: 2237-2241, 1981. The effect of compounds on serotonin release was expressed as the percentage of inhibition of the maximum release by each inducer and plotted against the log molar concentrations of each agent.

[6] = test system: human platelets (arachidonic acid-induced aggregation); test: inhibition of arachidonic acid-induced platelet aggregation, human platelet-rich plasma; format: cell-based
Method: as §3, §4

[7] = test system: human platelets (arachidonic acid-induced serotonin secretion); test: inhibition of arachidonic acid-induced serotonin secretion, human platelet-rich plasma; format: cell-based
Method: as §3, §4, §5

[8] = test system: human platelets (collagen-induced aggregation); test: inhibition of collagen-induced platelet aggregation, human platelet-rich plasma; format: cell-based
Method: as §3, §4

[9] = test system: human platelets (collagen-induced serotonin secretion); test: inhibition of collagen-induced serotonin secretion, human platelet-rich plasma; format: cell-based
Method: as §3, §4, §5

[10] = test system: human platelets (ADP-induced aggregation); test: inhibition of the secondary phase of ADP-induced platelet aggregation, human platelet-rich plasma; format: cell-based
Method: as §3, §4

[11] = test system: human platelets (ADP-induced serotonin secretion); test: inhibition of ADP-induced serotonin secretion, human platelet-rich plasma; format: cell-based
Method: as §3, §4, §5

[12] = test system: human platelets (epinephrine-induced aggregation); test: inhibition of the secondary phase of epinephrine-induced platelet aggregation, human platelet-rich plasma; format: cell-based
Method: as §3, §4

[13] = test system: human platelets (epinephrine-induced serotonin secretion); test: inhibition of epinephrine-induced serotonin secretion, human platelet-rich plasma; format: cell-based
Method: as §3, §4, §5

human platelets [14] = test: human platelet aggregation and serotonin release, inducers taken together; format: cell-based; conditions: each inducer
Method: as §3, §4, §5

[15] = phenol acidities (pKa) determined spectrophotometrically; format: physicochemical; conditions: phenol; tris(hydroxymethyl)aminomethane buffer; UV
Method: Phenol acidities (pKa) were determined spectrophotometrically, as described by Albert et al., "The determination of Ionization Constants" 3rd Ed., Chapman and Hall, London and New York, 1984, by measuring the absorption as a function of pH in tris(hydroxymethyl)aminomethane buffer. Since the catechols tended to oxidize in basic media the buffers were degassed and flushed with argon prior to use.

human platelets [16] = conditions: in vitro, background; cited from earlier work
[17] = cited from earlier work
[18] = molecular target: T3, U46619-induced contractions of rat thoracic aorta (Rattus norvegicus, UniProt P34978); test: antagonism of U46619-induced contractions of rat thoracic aorta; format: cell-based, rat (male Sprague-Dawley); conditions: no analog (None); n = 16; read-out: pD2 of U46619 (control) (converted)
T3 construct: A 2-3 cm segment of thoracic aorta was excised; tissue Harlan Industries, Inc., Cumberland, IN (animals); host or cells: rat thoracic aorta, spirally cut strips
T3 sequence (P34978 1-341): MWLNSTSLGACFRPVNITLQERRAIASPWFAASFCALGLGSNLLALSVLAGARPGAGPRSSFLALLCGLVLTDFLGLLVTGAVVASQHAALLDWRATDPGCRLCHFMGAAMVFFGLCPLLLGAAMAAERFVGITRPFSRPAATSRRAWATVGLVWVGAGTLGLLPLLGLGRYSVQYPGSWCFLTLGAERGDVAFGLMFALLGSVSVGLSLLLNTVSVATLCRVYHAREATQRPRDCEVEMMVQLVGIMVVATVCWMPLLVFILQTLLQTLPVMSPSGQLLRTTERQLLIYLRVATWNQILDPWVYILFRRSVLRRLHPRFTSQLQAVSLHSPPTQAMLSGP
Method: The vasoconstrictive activity of U46619 (a stable thromboxane A2 agonist) on thoracic aorta tissue was determined as follows: Male Sprague-Dawley rats (Harlan Industries, Inc., Cumberland, IN) weighing between 250 and 350 gm were stunned and killed by cervical dislocation. A 2-3 cm segment of thoracic aorta was excised, cleaned of any adhering fat and connecting tissue, spirally cut into 2 matched strips, Constantine, supra. (2.0×0.3 cm). Strips were mounted in 10 ml tissue baths filled with the physiological salt solution in which 3×10^-6 M indomethaecin was present. A tension of 1 gm was applied to the strips. Responses of the tissues to drugs were monitored via Grass FT-03 isometric force transducers connected to a Grass Model 7C polygraph (Grass Instruments Co., Quincy, MA).
Some experiments were done in the absence of indomethacin. Concentration-dependent responses to U46619 were constructed in each preparation as described by Van Rossum, supra.
Effective concentration-50 (EC50) values of the agonists were determined graphically from individual plots of percent response versus log concentration. The potency of each agonist was expressed as a pD2 value where pD2 is equal to the negative logarithm of the experimentally determined EC50 value.
Antagonists were quantitated by calculating their pKB or pA2 values according to the methods of Furchgott, Ann. N.Y. Acad. Sci., 139: 553-570 (1967) and Arunlakshana et al., Br. J. Pharmacol., 14: 48-58 (1959). The pKB value is equivalent to the -log of [I]/(CR-1), where pKB is the negative logarithm of the apparent dissociation constant of the antagonist (KB), [I] is the concentration of the antagonist, and CR is the concentration ratio of the agonist EC50 in the presence of antagonist to the agonist EC50 in the absence of antagonist. To determine significant differences between pD2, pKB or pA2 values, a 5% level of significance was used. Arunlakshana plots were analyzed by computer according to the method of Tallarida et al., Manual of Pharmacological Calculations With Computer Programs, 29-31, (1981).

[19] = read-out: IC50 platelet aggregation
[20] = read-out: pIC50 platelet aggregation (converted)
[21] = read-out: IC50 serotonin secretion
[22] = read-out: pIC50 serotonin secretion (converted)
[23] = read-out: IC50 platelet aggregation (secondary phase)
[24] = read-out: pIC50 platelet aggregation (secondary phase) (converted)

T1 sequence (Q8K4Z4 whole entry): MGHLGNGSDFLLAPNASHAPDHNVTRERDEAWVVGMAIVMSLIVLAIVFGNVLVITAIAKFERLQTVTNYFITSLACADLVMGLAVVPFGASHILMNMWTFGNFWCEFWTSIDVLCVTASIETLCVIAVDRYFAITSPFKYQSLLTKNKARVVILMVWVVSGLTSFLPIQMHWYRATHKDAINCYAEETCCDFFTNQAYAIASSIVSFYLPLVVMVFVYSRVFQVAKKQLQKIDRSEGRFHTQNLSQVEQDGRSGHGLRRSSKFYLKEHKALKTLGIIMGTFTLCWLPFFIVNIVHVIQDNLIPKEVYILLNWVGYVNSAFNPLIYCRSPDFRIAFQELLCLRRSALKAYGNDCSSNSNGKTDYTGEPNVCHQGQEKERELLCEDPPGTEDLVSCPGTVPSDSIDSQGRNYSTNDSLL
T2 sequence (H0W3H1 1-470): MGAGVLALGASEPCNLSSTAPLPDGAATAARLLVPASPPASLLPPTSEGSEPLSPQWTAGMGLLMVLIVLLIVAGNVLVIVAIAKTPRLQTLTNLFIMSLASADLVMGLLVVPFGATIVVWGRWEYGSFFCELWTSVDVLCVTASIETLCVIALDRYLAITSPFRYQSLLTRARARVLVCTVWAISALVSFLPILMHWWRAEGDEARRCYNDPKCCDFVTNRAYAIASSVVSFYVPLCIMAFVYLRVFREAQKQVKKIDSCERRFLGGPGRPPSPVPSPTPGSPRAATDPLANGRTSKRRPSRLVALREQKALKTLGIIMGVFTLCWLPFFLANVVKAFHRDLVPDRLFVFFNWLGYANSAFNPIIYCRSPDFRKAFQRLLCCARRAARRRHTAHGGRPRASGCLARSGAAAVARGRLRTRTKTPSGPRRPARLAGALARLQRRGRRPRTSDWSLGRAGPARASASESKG

NCC(O)c1ccc(O)c(O)c1F (stereo not shown)
adrenergic receptor activity/selectivity (adrenergic receptors): selective β-adrenergic agonist

NCC(O)c1cc(O)c(O)cc1F (stereo not shown) [6-fluoro analog of norepinephrine]
adrenergic receptor activity/selectivity (adrenergic receptors): selective β-adrenergic agonist

CNC[C@H](O)c1ccc(O)c(O)c1 [epinephrine]
adrenergic receptor activity/selectivity (adrenergic receptors): stimulates both α- and β-adrenergic receptors to about the same degree
side effects [1]: tachycardia, elevated blood pressure, headache, and tremors

CNC[C@H](O)c1ccc(O)c(O)c1 [R-(-)-epinephrine]
adrenergic receptor activity/selectivity (adrenergic receptors): more active than S-(+)-epinephrine on both α- and β-adrenergic receptors

COc1cc(CC2NCCc3cc(O)c(O)cc32)cc(OC)c1OC (stereo not shown) [TMQ, trimetoquinol]
EC50 [2]: 57.5 nM
agonist activity on tracheal relaxation [2]: nearly equally active as an agonist on tracheal relaxation
Emax ([2]; guinea pig, read-out: IAR ± SEM (intrinsic activity ratio)): 95 ± 1%
Emax [3]: 100%
IC50 [4, 19]: 440 nM
IC50 [4, 20]: 437 nM
IC50 [5, 21]: 720 nM
IC50 [5, 22]: 692 nM
IC50 [6, 19]: 1040 nM
IC50 [6, 20]: 1050 nM
IC50 [7, 21]: 1330 nM
IC50 [7, 22]: 1260 nM
IC50 [8, 19]: 930 nM
IC50 [8, 20]: 933 nM
IC50 [9, 21]: 620 nM
IC50 [9, 22]: 589 nM
IC50 [10, 23]: 340 nM
IC50 [10, 24]: 269 nM
IC50 [11, 21]: 230 nM
IC50 [11, 22]: 200 nM
IC50 [12, 23]: 1730 nM
IC50 [12, 24]: 1660 nM
IC50 [13, 21]: 1150 nM
IC50 [13, 22]: 1020 nM
inhibition of aggregation and serotonin release (human platelets [14]): inhibitors of aggregation and serotonin release by each inducer
pKa [15]: 8.77 ± 0.15
effect on arachidonic acid-mediated platelet aggregation (human platelets [16]): blocks endoperoxide/thromboxane arachidonic acid-mediated in vitro aggregation of human platelets
side effects [1]: undesirable effect of also increasing the β1 -adrenergic activity which stimulates the heart

CC(C)NCC(O)c1ccc(O)c(O)c1 (stereo not shown) [isoproterenol]
duration of action ([17]; averaging): 1.5 to 2 h
onset of action ([17]; bronchodilator, inhalation): 2 to 5 min
adrenergic receptor activity/selectivity (adrenergic receptors): possesses little tissue selectivity and stimulates both β1 - and β2 -adrenergic receptors
side effects [1]: undesirable tachycardia, increase in cardiac output and an elevation in blood pressure

NCCc1ccc(O)c(O)c1F [2-fluoro-dopamine]
adrenergic receptor activity/selectivity (adrenergic receptors): do not show selectivity for adrenergic receptors

NCCc1cc(O)c(O)cc1F [6-fluoro-dopamine]
adrenergic receptor activity/selectivity (adrenergic receptors): do not show selectivity for adrenergic receptors

CCCCC[C@H](O)/C=C/[C@@H]1[C@@H](C/C=C\CCCC(=O)O)[C@H]2CO[C@@H]1C2 [Compound U46619, 15S-hydroxy-11α,9α-epoxymethanoprosta-5Z,13E-dienoic acid, reference compound]
EC50 [18]: 6.76 nM
